# From patent US10392368B2, “Pyrazolo and triazolo bicyclic compounds as JAK kinase inhibitors” (THERAVANCE BIOPHARMA R&D IP, LLC, priority 2017, dated 2019)
# Read-outs that look alike come from different tables or passages of the source.
# Assays:
# [1] = system: IL-2 stimulated pSTAT5 in Tall-1 T cells; assay: Cellular JAK3 potency assay: inhibition of IL-2 stimulated pSTAT5 in Tall-1 T cells; format: cell-based, human; details: for IC50: Homo sapiens, read-out: Tall-1 (pIC50) (converted)
# How it was run: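 Tall-1 human T cells (45,000/well) in phenol red-free DMEM with 10% FBS were preincubated with compound 1 h at 37 °C, then stimulated with IL-2 (final 300 ng/ml) for 30 min. Lysate pSTAT5 read by AlphaLisa; IC50 from inhibition curves, reported as pIC50 (mean±SD).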
# JAK1 = molecular target: T1, JAK1 (Homo sapiens, UniProt P23458); assay: Biochemical JAK1 kinase assay (LanthaScreen); details: for Ki: read-out: JAK 1 (pKi) (converted)
# T1 construct: GST; purchased Life Technologies
# T1 sequence (P23458 whole entry): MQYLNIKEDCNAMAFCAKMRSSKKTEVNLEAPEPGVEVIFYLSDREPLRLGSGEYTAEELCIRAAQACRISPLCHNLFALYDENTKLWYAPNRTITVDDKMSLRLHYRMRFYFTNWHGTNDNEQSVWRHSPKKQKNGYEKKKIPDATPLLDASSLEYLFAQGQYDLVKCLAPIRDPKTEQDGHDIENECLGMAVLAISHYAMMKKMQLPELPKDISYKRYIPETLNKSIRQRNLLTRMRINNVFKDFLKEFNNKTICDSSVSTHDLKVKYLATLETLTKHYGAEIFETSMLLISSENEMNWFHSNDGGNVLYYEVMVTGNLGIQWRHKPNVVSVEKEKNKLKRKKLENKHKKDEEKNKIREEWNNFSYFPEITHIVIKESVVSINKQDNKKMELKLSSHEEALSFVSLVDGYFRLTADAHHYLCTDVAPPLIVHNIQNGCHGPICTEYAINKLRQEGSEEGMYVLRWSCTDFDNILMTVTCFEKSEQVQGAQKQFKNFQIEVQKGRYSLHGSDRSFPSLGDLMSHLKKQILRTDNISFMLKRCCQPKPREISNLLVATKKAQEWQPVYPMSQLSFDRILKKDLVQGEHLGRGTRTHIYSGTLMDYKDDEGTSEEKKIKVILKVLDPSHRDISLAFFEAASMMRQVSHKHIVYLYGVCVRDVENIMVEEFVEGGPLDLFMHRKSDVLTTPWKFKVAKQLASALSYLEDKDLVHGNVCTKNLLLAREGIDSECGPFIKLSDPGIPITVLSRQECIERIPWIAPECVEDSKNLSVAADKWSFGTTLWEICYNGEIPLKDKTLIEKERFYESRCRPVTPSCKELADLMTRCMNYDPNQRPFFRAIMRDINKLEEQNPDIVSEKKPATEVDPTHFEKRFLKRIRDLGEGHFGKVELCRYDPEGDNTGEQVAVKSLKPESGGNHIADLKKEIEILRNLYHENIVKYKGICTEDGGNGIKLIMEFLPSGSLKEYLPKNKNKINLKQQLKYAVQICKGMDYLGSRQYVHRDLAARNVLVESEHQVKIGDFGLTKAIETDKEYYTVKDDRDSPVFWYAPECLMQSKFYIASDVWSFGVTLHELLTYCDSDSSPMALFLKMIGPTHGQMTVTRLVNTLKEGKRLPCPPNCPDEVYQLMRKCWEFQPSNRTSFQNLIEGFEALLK
# How it was run: (§1)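 GST-tagged JAK enzyme and GFP-STAT1 peptide preincubated with compound 1 h, then ATP added; 1 h kinase reaction at ambient temperature, pH 7.5 HEPES/MgCl2 buffer, 1% DMSO. Tb-anti-pSTAT1 (pTyr701) TR-FRET, 520/495 nm ratio; IC50 from 4-parameter fit, converted to pKi via Cheng-Prusoff.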
# Tyk2 = molecular target: T2, Tyk2 (Homo sapiens, UniProt P29597); assay: Biochemical Tyk2 kinase assay (LanthaScreen); details: for Ki: read-out: Tyk 2 (pKi) (converted)
# T2 construct: GST; purchased Life Technologies
# T2 sequence (P29597 whole entry): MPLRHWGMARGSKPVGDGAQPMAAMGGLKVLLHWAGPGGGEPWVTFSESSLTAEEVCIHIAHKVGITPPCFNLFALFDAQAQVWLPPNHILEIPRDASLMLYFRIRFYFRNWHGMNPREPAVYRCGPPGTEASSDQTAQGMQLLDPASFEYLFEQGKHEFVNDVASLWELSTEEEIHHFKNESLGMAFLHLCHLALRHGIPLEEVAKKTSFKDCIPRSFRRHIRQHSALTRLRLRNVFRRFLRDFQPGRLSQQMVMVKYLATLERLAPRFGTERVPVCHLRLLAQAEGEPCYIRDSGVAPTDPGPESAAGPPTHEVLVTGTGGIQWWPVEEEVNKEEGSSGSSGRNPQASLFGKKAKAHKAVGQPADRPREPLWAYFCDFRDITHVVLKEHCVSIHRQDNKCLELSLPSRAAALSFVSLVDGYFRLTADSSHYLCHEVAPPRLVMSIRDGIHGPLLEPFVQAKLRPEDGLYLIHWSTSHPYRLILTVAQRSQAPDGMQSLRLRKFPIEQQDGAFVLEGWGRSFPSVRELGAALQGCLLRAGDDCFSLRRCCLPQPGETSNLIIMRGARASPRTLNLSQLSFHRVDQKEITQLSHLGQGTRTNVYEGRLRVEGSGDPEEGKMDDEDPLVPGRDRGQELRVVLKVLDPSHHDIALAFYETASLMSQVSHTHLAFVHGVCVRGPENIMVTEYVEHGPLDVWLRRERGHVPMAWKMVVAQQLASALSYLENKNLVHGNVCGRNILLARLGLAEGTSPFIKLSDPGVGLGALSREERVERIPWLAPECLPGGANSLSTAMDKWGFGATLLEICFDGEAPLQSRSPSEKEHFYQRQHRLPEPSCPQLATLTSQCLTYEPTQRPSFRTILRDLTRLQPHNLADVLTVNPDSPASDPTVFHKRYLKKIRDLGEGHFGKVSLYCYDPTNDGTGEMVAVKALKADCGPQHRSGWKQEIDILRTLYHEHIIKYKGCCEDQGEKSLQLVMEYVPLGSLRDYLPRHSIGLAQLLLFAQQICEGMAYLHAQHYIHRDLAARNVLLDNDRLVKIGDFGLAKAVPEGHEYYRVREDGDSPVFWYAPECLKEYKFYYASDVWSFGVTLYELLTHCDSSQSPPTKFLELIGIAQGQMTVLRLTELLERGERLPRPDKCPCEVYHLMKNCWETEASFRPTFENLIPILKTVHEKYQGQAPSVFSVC
# How it was run: as §1
# JAK2 = molecular target: T3, JAK2 (Homo sapiens, UniProt O60674); assay: Biochemical JAK2 kinase assay (LanthaScreen); details: for Ki: read-out: JAK 2 (pKi) (converted)
# T3 construct: GST; purchased Life Technologies
# T3 sequence (O60674 whole entry): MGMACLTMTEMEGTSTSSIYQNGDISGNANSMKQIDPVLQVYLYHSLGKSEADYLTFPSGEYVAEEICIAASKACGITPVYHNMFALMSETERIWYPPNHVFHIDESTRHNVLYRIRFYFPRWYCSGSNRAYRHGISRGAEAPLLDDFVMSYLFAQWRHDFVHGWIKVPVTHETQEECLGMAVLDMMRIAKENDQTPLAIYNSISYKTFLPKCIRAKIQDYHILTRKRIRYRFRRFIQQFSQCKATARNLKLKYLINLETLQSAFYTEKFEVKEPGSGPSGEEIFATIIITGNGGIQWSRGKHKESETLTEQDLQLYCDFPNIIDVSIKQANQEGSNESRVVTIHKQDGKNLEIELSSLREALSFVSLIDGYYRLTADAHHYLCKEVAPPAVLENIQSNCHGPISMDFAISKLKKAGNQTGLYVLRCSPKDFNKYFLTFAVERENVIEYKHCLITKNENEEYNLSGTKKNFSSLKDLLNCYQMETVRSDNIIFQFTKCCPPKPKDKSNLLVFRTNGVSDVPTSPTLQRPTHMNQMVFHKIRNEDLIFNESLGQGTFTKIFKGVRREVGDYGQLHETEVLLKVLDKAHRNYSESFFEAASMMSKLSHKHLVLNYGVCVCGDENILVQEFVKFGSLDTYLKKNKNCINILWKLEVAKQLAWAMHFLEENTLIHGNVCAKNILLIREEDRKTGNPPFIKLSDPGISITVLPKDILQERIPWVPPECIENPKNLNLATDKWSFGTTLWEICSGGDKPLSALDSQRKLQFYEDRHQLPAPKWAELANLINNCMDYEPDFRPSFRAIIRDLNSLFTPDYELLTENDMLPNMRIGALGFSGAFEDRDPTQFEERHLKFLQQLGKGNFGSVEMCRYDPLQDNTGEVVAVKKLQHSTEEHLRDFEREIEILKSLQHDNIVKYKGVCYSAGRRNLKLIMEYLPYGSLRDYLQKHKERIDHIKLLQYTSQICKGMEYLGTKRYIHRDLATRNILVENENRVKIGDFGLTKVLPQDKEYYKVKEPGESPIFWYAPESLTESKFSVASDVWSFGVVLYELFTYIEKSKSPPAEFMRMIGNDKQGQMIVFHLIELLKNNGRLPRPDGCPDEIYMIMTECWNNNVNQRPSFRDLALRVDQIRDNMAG
# How it was run: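 GST-tagged recombinant JAK2 pre-incubated 1 h at ambient temperature with compound and GFP-STAT1 peptide in HEPES pH 7.5/MgCl2 buffer, then ATP added for a 1 h reaction with 1% DMSO. TR-FRET read after EDTA and Tb-anti-pSTAT1 (pTyr701) addition; IC50 from 4-parameter fit, converted to pKi by Cheng-Prusoff.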
# JAK3 = molecular target: T4, JAK3 (Homo sapiens, UniProt P52333); assay: Biochemical JAK3 kinase assay (LanthaScreen); design: GST; purchased Life Technologies; details: for Ki: read-out: JAK 3 (pKi) (converted)
# T4 sequence (P52333 1-1124): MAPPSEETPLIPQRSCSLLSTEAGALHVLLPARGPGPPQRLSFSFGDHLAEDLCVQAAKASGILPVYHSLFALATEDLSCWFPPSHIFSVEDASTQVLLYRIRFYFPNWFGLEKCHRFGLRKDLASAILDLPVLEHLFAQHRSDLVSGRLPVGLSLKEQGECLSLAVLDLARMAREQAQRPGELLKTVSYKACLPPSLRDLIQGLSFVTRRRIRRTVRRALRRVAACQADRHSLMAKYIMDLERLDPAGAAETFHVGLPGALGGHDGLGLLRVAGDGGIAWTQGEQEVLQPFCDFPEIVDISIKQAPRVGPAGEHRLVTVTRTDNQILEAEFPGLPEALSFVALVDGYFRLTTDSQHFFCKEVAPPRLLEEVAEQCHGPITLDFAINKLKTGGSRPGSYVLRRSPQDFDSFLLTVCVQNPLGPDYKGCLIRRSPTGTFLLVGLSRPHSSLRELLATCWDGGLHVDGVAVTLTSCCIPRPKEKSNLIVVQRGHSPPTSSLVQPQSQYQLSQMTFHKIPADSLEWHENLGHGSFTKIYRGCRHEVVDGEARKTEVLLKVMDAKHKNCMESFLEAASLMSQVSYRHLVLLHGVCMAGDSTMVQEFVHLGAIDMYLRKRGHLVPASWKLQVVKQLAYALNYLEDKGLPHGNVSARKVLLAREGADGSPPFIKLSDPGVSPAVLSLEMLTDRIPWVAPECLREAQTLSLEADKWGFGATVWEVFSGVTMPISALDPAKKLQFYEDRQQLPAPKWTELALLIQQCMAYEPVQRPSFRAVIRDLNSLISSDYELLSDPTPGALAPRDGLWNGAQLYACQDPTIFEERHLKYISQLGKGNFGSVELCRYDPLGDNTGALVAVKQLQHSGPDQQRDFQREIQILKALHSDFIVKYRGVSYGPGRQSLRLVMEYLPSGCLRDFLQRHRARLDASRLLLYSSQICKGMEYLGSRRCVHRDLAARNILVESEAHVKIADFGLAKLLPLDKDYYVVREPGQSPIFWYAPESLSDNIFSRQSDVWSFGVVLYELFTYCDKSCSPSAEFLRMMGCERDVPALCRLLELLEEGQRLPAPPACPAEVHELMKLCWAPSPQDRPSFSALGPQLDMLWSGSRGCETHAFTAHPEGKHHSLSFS
# How it was run: as §1
# [2] = TALL-1, IL-2 stimulated pSTAT5, Tall-1 T cells
# [3] = selectivity JAK3 over JAK1, difference of pKi
# [4] = TALL-1, IL-2 stimulated pSTAT5 in Tall-1 T cells
# [5] = selectivity: difference of pKi JAK3 and pKi JAK1
# [6] = IL-2 stimulated pSTAT5, Tall-1 T cells
Structure (SMILES),"IC50 [1, 2]",Ki (JAK1),Ki (Tyk2),Ki (JAK2),Ki (JAK3),JAK3 (pKi)-JAK1 (pKi) (JAK3; [3]),"IC50 [1, 4]",JAK3 (pKi)-JAK1 (pKi) (JAK3; [5]),"Tall-1 (pIC50) [1, 6]",JAK 1 (pKi) (JAK1),Tyk 2 (pKi) (Tyk2),JAK 2 (pKi) (JAK2),JAK 3 (pKi) (JAK3),Tall-1 (pIC50) ([1]; IL-2 stimulated pSTAT5 in Tall-1 T cells)
C=CC(=O)N1CCC(Oc2cc(-c3ccc(O)cc3)cc3[nH]ncc23)CC1 [Compound 6-2],< 0.0316 µM,0.01 to 0.1 µM,> 0.1 µM,0.01 to 0.1 µM,< 0.0001 µM,B (a value of 2.3 to 3),,,,,,,,
CN(C)C/C=C/C(=O)N1CC(F)(COc2nc(-c3ccc(O)c(Cl)c3)cc3[nH]ncc23)C1 [Compound 3-91],,0.01 to 0.1 µM,> 0.1 µM,0.01 to 0.1 µM,< 0.0001 µM,,< 0.0316 µM,A (a value of 3 or above),,,,,,
C=CC(=O)N1CCC(N(C)c2cc(-c3ccc(O)c(Cl)c3)cc3[nH]ncc23)CC1 [Compound 7-7],,,,,,A (a value of 3 or above),,,B (a pIC50 value between 6.7 (included) and 7.5 (IC50 between 200 nM and 32 nM)),E (a pKi value of 7 or below (Ki of 100 nM or above)),E (a pKi value of 7 or below (Ki of 100 nM or above)),D (a pKi value between 7 and 8 (Ki between 100 nM and 10 nM)),B (a pKi value between 9 and 10 (Ki between 1 nM and 0.1 nM)),
C=CC(=O)N1C2CCC1CC(Oc1cc(-c3ccc(O)c(Cl)c3)cc3[nH]ncc13)C2 (stereo not drawn) [Compound 10-4],,,,,,A (a value of 3 or above),,,B (a pIC50 value between 6.7 (included) and 7.5 (IC50 between 200 nM and 32 nM)),E (a pKi value of 7 or below (Ki of 100 nM or above)),E (a pKi value of 7 or below (Ki of 100 nM or above)),D (a pKi value between 7 and 8 (Ki between 100 nM and 10 nM)),B (a pKi value between 9 and 10 (Ki between 1 nM and 0.1 nM)),
C=CC(=O)N1CC(F)(COc2nc(-c3ccc(O)c(F)c3)nc3[nH]ncc23)C1 [Compound 3-93],,> 0.1 µM,> 0.1 µM,> 0.1 µM,< 0.0001 µM,,< 0.0316 µM,A (a value of 3 or above),,,,,,
C=CC(=O)N1CC(Oc2cc(-c3ccc(O)c(F)c3)cc3[nH]ncc23)(C(F)F)C1 [Compound 5-22],,,,,,A (a value of 3 or above),,,B (a pIC50 value between 6.7 (included) and 7.5 (IC50 between 200 nM and 32 nM)),E (a pKi value of 7 or below (Ki of 100 nM or above)),E (a pKi value of 7 or below (Ki of 100 nM or above)),E (a pKi value of 7 or below (Ki of 100 nM or above)),B (a pKi value between 9 and 10 (Ki between 1 nM and 0.1 nM)),
"C=CC(=O)N1CC[C@H](Sc2cc(-c3ccc(O)cc3)cc3[nH]ncc23)C1 [Compound 12, (S)-1-(3-((6-(4-hydroxyphenyl)-1H-indazol-4-yl)thio)pyrrolidin-1-yl)prop-2-en-1-one]",,> 0.1 µM,> 0.1 µM,> 0.1 µM,0.0001 to 0.001 µM,,0.0316 to 0.2 µM,B (a value of 2.3 to 3),,,,,,
C=CC(=O)N1CC(Sc2cc(-c3ccc(O)cc3)cc3[nH]ncc23)C1 [Compound 12-35],0.0316 to 0.2 µM,> 0.1 µM,> 0.1 µM,> 0.1 µM,0.0001 to 0.001 µM,B (a value of 2.3 to 3),,,,,,,,
C=CC(=O)N1CCC(C#N)(C(=O)Nc2cc(-c3ccc(O)cc3)cc3[nH]ncc23)CC1 [Compound 12-41],< 0.0316 µM,> 0.1 µM,> 0.1 µM,> 0.1 µM,0.0001 to 0.001 µM,A (a value of 3 or above),,,,,,,,
CN(C)C/C=C/C(=O)N1CC[C@H](COc2cc(-c3ccc(O)c(Cl)c3)cc3[nH]ncc23)C1 [Compound 2-2],,,,,,,,A (a value of 3 or above),,E (a pKi value of 7 or below (Ki of 100 nM or above)),E (a pKi value of 7 or below (Ki of 100 nM or above)),D (a pKi value between 7 and 8 (Ki between 100 nM and 10 nM)),B (a pKi value between 9 and 10 (Ki between 1 nM and 0.1 nM)),B (a pIC50 value between 6.7 (included) and 7.5 (IC50 between 200 nM and 32 nM))
C=CC(=O)N1CC(CSc2cc(-c3ccc(O)cc3)cc3[nH]ncc23)C1 [Compound 12-34],< 0.0316 µM,> 0.1 µM,> 0.1 µM,> 0.1 µM,0.0001 to 0.001 µM,B (a value of 2.3 to 3),,,,,,,,
C=CC(=O)N1CCO[C@@H](C(=O)Nc2nc(-c3ccc(O)c(Cl)c3)cc3[nH]ncc23)C1 [Compound 13-20],,,,,,B (a value of 2.3 to 3),,,B (a pIC50 value between 6.7 (included) and 7.5 (IC50 between 200 nM and 32 nM)),E (a pKi value of 7 or below (Ki of 100 nM or above)),E (a pKi value of 7 or below (Ki of 100 nM or above)),E (a pKi value of 7 or below (Ki of 100 nM or above)),B (a pKi value between 9 and 10 (Ki between 1 nM and 0.1 nM)),
COC1(C)CN(C/C=C/C(=O)N2CC(COc3cc(-c4ccc(O)cc4)cc4[nH]ncc34)C2)C1 [Compound 3-133],,> 0.1 µM,> 0.1 µM,0.01 to 0.1 µM,< 0.0001 µM,,0.2 to 1 µM,A (a value of 3 or above),,,,,,
CN(C)C/C=C/C(=O)N1CC(COc2cc(-c3ccc(O)c(Cl)c3)cc3[nH]ncc23)C1 [Compound 3-2],,> 0.1 µM,> 0.1 µM,> 0.1 µM,0.0001 to 0.001 µM,,0.0316 to 0.2 µM,A (a value of 3 or above),,,,,,
